# Experimental data as given in patent US3954985A, “Method for inhibiting bacterial growth with certain selected 3-chloro-tetrahydro-1,3-oxazines or oxazolidines” (INTERx Research Corporation, priority 1975, dated 1976).
# Where “and” joins values, the source holds several entries; their conditions need not be identical. Identical values can stand only once.
# Assays:
# [1] = test system: Staph. epidermidis ATCC 12228; assay: Bactericidal endpoint (time for complete sterilization), ATCC 12228; format: cell-based
# Text: (§1) The procedure employed to determine the antibacterial activity of 3-chloro-2,2,4,4-tetramethyl-tetrahydro1,3-oxazolidine and 3-chloro-2,2-[spiro-1'-methyl-4'-piperidinyl]-4,4-dimethyl-1,3-oxazolidinewas based primarily on a modification of the serial dilution method of analysis. However, instead of determining the minimum inhibitory concentration parameters for the compound investigated, applicants alternatively chose to determine the bactericidal endpoint for a given concentration of the compound investigated. Consequently, applicants' studies were established to determine the time required for complete sterilization of the micro-organism tested, when exposed to a given concentration of the compound investigated.
# (§2) A stock solution of each compound identified above was prepared using an appropriate buffered solution.
# (§3) For screening in the absence of a denaturing agent (e.g., horse serum) an equal volume of distilled water and the resulting solution was subjected to the screen.
# (§4) For screening in the presence of a denaturing agent, a volume of the stock solution was diluted using an equal volume of 10% horse serum. When necessary, the final solution was adjusted to the desired pH using 1N HCl and the solution was permitted to stand at room temperature for thirty minutes prior to the screening procedure.
# (§5) To 5 ml of the stock solution being evaluated, there was added 0.2 ml of an overnight broth culture containing the particular micro-organism being investigated (see above). At time intervals of 0.5, 1, 2, 3, 4, 5, . . . minutes, a loop of this suspension was subcultured into 5 ml of a sterile nutrient broth. All the samples were then incubated at 37°C for seven days with daily observation for evidence of bacterial growth. The time interval reported is for that sample in which no bacterial growth was observed after the incubation period.
# E. coli ATCC 10536 = assay: Bactericidal endpoint (time for complete sterilization), ATCC 10536; format: cell-based
# Text: as §1, §2, §3, §4, §5
# [2] = test system: Kleb. pneumoniae ATCC 10031; assay: Bactericidal endpoint (time for complete sterilization), ATCC 10031; format: cell-based
# Text: as §1, §2, §3, §4, §5
# [3] = test system: Pseud. aeruginosa ATCC 9027; assay: Bactericidal endpoint (time for complete sterilization), ATCC 9027; format: cell-based
# Text: as §1, §2, §3, §4, §5
# Staph. aureus ATCC 6538 = assay: Bactericidal endpoint (time for complete sterilization), ATCC 6538; format: cell-based
# Text: as §1, §2, §3, §4, §5
# [4] = test system: Bord. bronchiseptica ATCC 4617; assay: Bactericidal endpoint (time for complete sterilization), ATCC 4617; format: cell-based
# Text: as §1, §2, §3, §4, §5
# 6501 = assay: Bactericidal endpoint (time for complete sterilization), 6501; format: cell-based
# Text: as §1, §2, §3, §4, §5
# [5] = Stability in the neat state at 40°C (positive chlorine by thiosulfate titration); format: physicochemical
# Text: ^a Weight of sample analyzed.
# ^b Volume of 10^^-2 N sodium thiosulfate required to titrate
# the sample at time (T).
# ^c Percentage of positive chlorine in the sample analyzed.
# [6] = 0.5 M NaH2PO4 pH 7.0, diluent not given, 19.13 × 10^-3 M (6026 ppm)
# [7] = 0.5 M NaH2PO4 pH 710 (so in the source), H2O, 19.75 × 10^-3 M (6221 ppm)
# [8] = 0.5 M NaOAc pH 4.6, H2O, 17.0 × 10^-3 (5355 ppm)
# [9] = 0.5 M NaOAc pH 4.6, Serum, 17.0 × 10^-3 (5355 ppm)
smiles,measurement,setting,value
CN1CCC2(CC1)OCC(C)(C)N2Cl,"Antibacterial activity, time, 12228",[1]; [6],> 10 min
same,"Antibacterial activity, time, 12228",[1]; [7],4 min
same,"Antibacterial activity, time, 12228",[1]; [8],0.5 min
same,"Antibacterial activity, time, 12228",[1]; [9],2 min
same,"Antibacterial activity, time, 10536",E. coli ATCC 10536; [6],4 min
same,"Antibacterial activity, time, 10536",E. coli ATCC 10536; [7],1 min
same,"Antibacterial activity, time, 10536",E. coli ATCC 10536; [8],0.5 min
same,"Antibacterial activity, time, 10536",E. coli ATCC 10536; [9],0.5 min
same,"Antibacterial activity, time, 10031",[2]; [6],> 10 min
same,"Antibacterial activity, time, 10031",[2]; [7],1 min
same,"Antibacterial activity, time, 10031",[2]; [8],0.5 min
same,"Antibacterial activity, time, 10031",[2]; [9],1 min
same,"Antibacterial activity, time, 9027",[3]; [6],> 10 min
same,"Antibacterial activity, time, 9027",[3]; [7],1 min
same,"Antibacterial activity, time, 9027",[3]; [8],0.5 min
same,"Antibacterial activity, time, 9027",[3]; [9],1 min
same,"Antibacterial activity, time, 6538",Staph. aureus ATCC 6538; [6],> 10 min
same,"Antibacterial activity, time, 6538",Staph. aureus ATCC 6538; [7],4 min
same,"Antibacterial activity, time, 6538",Staph. aureus ATCC 6538; [8],1 min
same,"Antibacterial activity, time, 6538",Staph. aureus ATCC 6538; [9],6 min
same,"Antibacterial activity, time, 4617",[4]; [6],> 10 min
same,"Antibacterial activity, time, 4617",[4]; [7],1 min
same,"Antibacterial activity, time, 4617",[4]; [8],0.5 min
same,"Antibacterial activity, time, 4617",[4]; [9],1 min
same,"Antibacterial activity, time, 6501",6501; [6],> 10 min
same,"Antibacterial activity, time, 6501",6501; [7],1 min
same,"Antibacterial activity, time, 6501",6501; [8],0.5 min
same,"Antibacterial activity, time, 6501",6501; [9],1 min
same,%Cl (percentage of positive chlorine in the sample analyzed),[5]; 0 days,10.6%
same,%Cl (percentage of positive chlorine in the sample analyzed),[5]; 1 day,10.2% and 10.3%
same,%Cl (percentage of positive chlorine in the sample analyzed),[5]; 2 days,10.3% and 9.8%
same,%Cl (percentage of positive chlorine in the sample analyzed),[5]; 3 days,9.8% and 10.0%
same,%Cl (percentage of positive chlorine in the sample analyzed),[5]; 4 days,9.4%
same,%Cl (percentage of positive chlorine in the sample analyzed),[5]; 5 days,9.7%
same,%Cl (percentage of positive chlorine in the sample analyzed),[5]; 7 days,9.3% and 9.7%
same,%Cl (percentage of positive chlorine in the sample analyzed),[5]; 10 days,9.8%
same,%Cl (percentage of positive chlorine in the sample analyzed),[5]; 14 days,8.8% and 9.0%
same,%Cl (percentage of positive chlorine in the sample analyzed),[5]; 21 days,9.4%
same,%Cl (percentage of positive chlorine in the sample analyzed),[5]; 28 days,9.4% and 9.1%
same,%Cl (percentage of positive chlorine in the sample analyzed),[5]; 35 days,8.9% and 9.0%
same,%Cl (percentage of positive chlorine in the sample analyzed),[5]; 51 days,8.0%
